# Laboratory results reported in ChEMBL document CHEMBL3885861, “Open TG-GATES”.
# Organism: Rattus norvegicus
# Assay: Open TG-GATES - Regimen: Daily Repeat
# Assay type: toxicity, organism-based, Sprague-Dawley
# Set-up: regimen Daily Repeat, gender Male, age 6 weeks
# Conditions: in vivo, po, route gavage; for APTT / Bas / Eos / Hb / Ht / Lym / MCH / MCHC / MCV / Mono / PT / Plat / RBC / Ret / WBC / Neu: tissue Blood; for KIDNEY_L / KIDNEY_R / KIDNEY_TOTAL: tissue Kidney; for LIVER: tissue Liver; for ALT / AST / BUN / CRE / Ca / DBIL / GLC / IP / K / LDH / Na / PL / RALB / TBIL / TC / TP / gamma-GTP / TG / ALP: tissue Plasma
# [1] = 0 mg/kg, 72 h, dose level Control, time 3 day
# [2] = 0 mg/kg, […], dose level Control, time 7 day
# [3] = 0 mg/kg, […], dose level Control, time 14 day
# [4] = 0 mg/kg, […], dose level Control, time 28 day
# [5] = 100 mg/kg, 72 h, dose level Low, time 3 day
# [6] = 100 mg/kg, […], dose level Low, time 7 day
# [7] = 100 mg/kg, […], dose level Low, time 14 day
# [8] = 100 mg/kg, […], dose level Low, time 28 day
# [9] = 300 mg/kg, 72 h, dose level Middle, time 3 day
compound,measurement,setting,value
C[C@H](CS)C(=O)N1CCC[C@H]1C(=O)O [CAPTOPRIL],TERMINAL_BW,[1],245.5 g
same,APTT,[1],16.1 s
same,Bas,[1],0%
same,Eos,[1],1.2%
same,Hb,[1],13.4 g/dL
same,Ht,[1],41%
same,Lym,[1],82.8%
same,MCH,[1],21.5 pg
same,MCHC,[1],32.7%
same,MCV,[1],65.6 fL
same,Mono,[1],5.8%
same,PT,[1],11.3 s
same,Plat,[1],117.3 x10_4/uL
same,RBC,[1],625 x10_4/ul
same,Ret,[1],7.6%
same,WBC,[1],119.1 x10_2/uL
same,KIDNEY_L,[1],1.1 g
same,KIDNEY_R,[1],1.1 g
same,KIDNEY_TOTAL,[1],2.2 g
same,LIVER,[1],11.9 g
same,ALT,[1],40.4 IU/L
same,AST,[1],64.8 IU/L
same,BUN,[1],17.6 mg/dL
same,CRE,[1],0.5 mg/dL
same,Ca,[1],11.3 mg/dL
same,DBIL,[1],0.016 mg/dL
same,GLC,[1],197.6 mg/dL
same,IP,[1],8.9 mg/dL
same,K,[1],4.8 meq/L
same,LDH,[1],86.2 IU/L
same,Na,[1],139 meq/L
same,PL,[1],142.4 mg/dL
same,RALB,[1],3.8 g/dL
same,TBIL,[1],0.4 mg/dL
same,TC,[1],70.6 mg/dL
same,TP,[1],5.7 g/dL
same,gamma-GTP,[1],1.2 IU/L
same,TERMINAL_BW,[2],274 g
same,TERMINAL_BW,[3],333.4 g
same,TERMINAL_BW,[4],402.1 g
same,APTT,[2],16.6 s
same,Bas,[2],0%
same,Eos,[2],0.8%
same,Hb,[2],13.8 g/dL
same,Ht,[2],41.7%
same,Lym,[2],83%
same,MCH,[2],21.1 pg
same,MCHC,[2],33.1%
same,MCV,[2],63.9 fL
same,Mono,[2],4%
same,Neu,[2],12.4%
same,Plat,[2],113.7 x10_4/uL
same,RBC,[2],653.4 x10_4/ul
same,Ret,[2],6.1%
same,WBC,[2],144.9 x10_2/uL
same,APTT,[3],16.9 s
same,Bas,[3],0%
same,Eos,[3],1%
same,Hb,[3],14.3 g/dL
same,Ht,[3],43.1%
same,Lym,[3],80.8%
same,MCH,[3],20.5 pg
same,MCHC,[3],33.1%
same,MCV,[3],62.1 fL
same,Mono,[3],6%
same,Neu,[3],12.4%
same,PT,[3],11.4 s
same,Plat,[3],112.4 x10_4/uL
same,RBC,[3],694.8 x10_4/ul
same,Ret,[3],4.1%
same,WBC,[3],122.3 x10_2/uL
same,APTT,[4],16.7 s
same,Bas,[4],0%
same,Eos,[4],1%
same,Hb,[4],14.5 g/dL
same,Ht,[4],43.7%
same,Lym,[4],86.8%
same,MCH,[4],19 pg
same,MCHC,[4],33.1%
same,MCV,[4],57.4 fL
same,Mono,[4],4.4%
same,Neu,[4],7.8%
same,PT,[4],11.9 s
same,RBC,[4],761.8 x10_4/ul
same,Ret,[4],2.5%
same,WBC,[4],154.2 x10_2/uL
same,KIDNEY_L,[2],1.1 g
same,KIDNEY_R,[2],1.1 g
same,KIDNEY_TOTAL,[2],2.3 g
same,KIDNEY_L,[3],1.3 g
same,KIDNEY_R,[3],1.3 g
same,KIDNEY_TOTAL,[3],2.6 g
same,KIDNEY_L,[4],1.4 g
same,KIDNEY_R,[4],1.4 g
same,KIDNEY_TOTAL,[4],2.9 g
same,LIVER,[2],13 g
same,LIVER,[3],15.7 g
same,LIVER,[4],17 g
same,ALT,[2],37.8 IU/L
same,AST,[2],62 IU/L
same,BUN,[2],18.8 mg/dL
same,CRE,[2],0.6 mg/dL
same,DBIL,[2],0.002 mg/dL
same,GLC,[2],198 mg/dL
same,IP,[2],8.1 mg/dL
same,K,[2],4.9 meq/L
same,LDH,[2],72.4 IU/L
same,Na,[2],141.4 meq/L
same,PL,[2],132.2 mg/dL
same,RALB,[2],3.8 g/dL
same,TBIL,[2],0.3 mg/dL
same,TC,[2],65.2 mg/dL
same,TG,[2],79.8 mg/dL
same,TP,[2],5.8 g/dL
same,gamma-GTP,[2],1.2 IU/L
same,ALP,[3],916.4 IU/L
same,ALT,[3],32.6 IU/L
same,AST,[3],60.2 IU/L
same,BUN,[3],17.8 mg/dL
same,CRE,[3],0.5 mg/dL
same,DBIL,[3],0 mg/dL
same,GLC,[3],202.6 mg/dL
same,IP,[3],8.1 mg/dL
same,K,[3],4.5 meq/L
same,LDH,[3],76.8 IU/L
same,Na,[3],139.4 meq/L
same,PL,[3],169.6 mg/dL
same,RALB,[3],3.9 g/dL
same,TBIL,[3],0.3 mg/dL
same,TC,[3],85.4 mg/dL
same,TG,[3],152 mg/dL
same,TP,[3],6 g/dL
same,gamma-GTP,[3],1.2 IU/L
same,ALP,[4],633 IU/L
same,ALT,[4],31.4 IU/L
same,AST,[4],58 IU/L
same,BUN,[4],20.4 mg/dL
same,CRE,[4],0.6 mg/dL
same,DBIL,[4],0.026 mg/dL
same,GLC,[4],213.6 mg/dL
same,IP,[4],7.7 mg/dL
same,K,[4],4.3 meq/L
same,LDH,[4],110.2 IU/L
same,Na,[4],139.8 meq/L
same,PL,[4],150 mg/dL
same,RALB,[4],3.9 g/dL
same,TBIL,[4],0.3 mg/dL
same,TC,[4],69.2 mg/dL
same,TG,[4],142.4 mg/dL
same,TP,[4],6.1 g/dL
same,gamma-GTP,[4],0.6 IU/L
same,TERMINAL_BW,[5],236.5 g
same,APTT,[5],16.5 s
same,Bas,[5],0%
same,Eos,[5],1%
same,Hb,[5],13.6 g/dL
same,Ht,[5],41.2%
same,Lym,[5],79.6%
same,MCH,[5],21.6 pg
same,MCHC,[5],33.1%
same,MCV,[5],65.3 fL
same,Mono,[5],8.4%
same,Neu,[5],11.4%
same,PT,[5],11.2 s
same,Plat,[5],120 x10_4/uL
same,RBC,[5],632.2 x10_4/ul
same,Ret,[5],7.1%
same,WBC,[5],121.4 x10_2/uL
same,KIDNEY_L,[5],0.9 g
same,KIDNEY_R,[5],1 g
same,KIDNEY_TOTAL,[5],1.9 g
same,LIVER,[5],11.7 g
same,ALP,[5],857.2 IU/L
same,ALT,[5],40.4 IU/L
same,AST,[5],67 IU/L
same,BUN,[5],21.2 mg/dL
same,CRE,[5],0.5 mg/dL
same,Ca,[5],11.4 mg/dL
same,DBIL,[5],0.01 mg/dL
same,GLC,[5],193.6 mg/dL
same,IP,[5],8.4 mg/dL
same,K,[5],5 meq/L
same,LDH,[5],116.8 IU/L
same,Na,[5],138.4 meq/L
same,PL,[5],150.6 mg/dL
same,RALB,[5],4.2 g/dL
same,TBIL,[5],0.3 mg/dL
same,TC,[5],81 mg/dL
same,TP,[5],6.1 g/dL
same,gamma-GTP,[5],1.4 IU/L
same,TERMINAL_BW,[6],261.5 g
same,TERMINAL_BW,[7],305.1 g
same,TERMINAL_BW,[8],346.2 g
same,APTT,[6],15.6 s
same,Bas,[6],0%
same,Eos,[6],0.6%
same,Hb,[6],13.8 g/dL
same,Ht,[6],41.4%
same,Lym,[6],84%
same,MCH,[6],20.7 pg
same,MCHC,[6],33.2%
same,MCV,[6],62.4 fL
same,Mono,[6],4.8%
same,Plat,[6],134.3 x10_4/uL
same,RBC,[6],664.8 x10_4/ul
same,Ret,[6],4.9%
same,WBC,[6],139.3 x10_2/uL
same,APTT,[7],16.9 s
same,Bas,[7],0%
same,Eos,[7],1.2%
same,Hb,[7],14.2 g/dL
same,Ht,[7],42.9%
same,Lym,[7],77%
same,MCH,[7],19.9 pg
same,MCHC,[7],33.2%
same,MCV,[7],60 fL
same,Mono,[7],7.6%
same,Neu,[7],14.4%
same,PT,[7],11.6 s
same,RBC,[7],717 x10_4/ul
same,Ret,[7],3.5%
same,WBC,[7],93.7 x10_2/uL
same,APTT,[8],15.9 s
same,Bas,[8],0%
same,Eos,[8],1.2%
same,Hb,[8],14.8 g/dL
same,Ht,[8],44.8%
same,Lym,[8],83.4%
same,MCH,[8],18.8 pg
same,MCHC,[8],33.1%
same,MCV,[8],56.6 fL
same,Mono,[8],5.4%
same,PT,[8],11.7 s
same,RBC,[8],790.8 x10_4/ul
same,Ret,[8],2.4%
same,WBC,[8],131.2 x10_2/uL
same,KIDNEY_L,[6],1.1 g
same,KIDNEY_R,[6],1.2 g
same,KIDNEY_TOTAL,[6],2.3 g
same,KIDNEY_L,[7],1.2 g
same,KIDNEY_R,[7],1.3 g
same,KIDNEY_TOTAL,[7],2.5 g
same,KIDNEY_L,[8],1.4 g
same,KIDNEY_R,[8],1.4 g
same,KIDNEY_TOTAL,[8],2.8 g
same,LIVER,[6],12.3 g
same,LIVER,[7],13.8 g
same,LIVER,[8],13.8 g
same,ALT,[6],40.8 IU/L
same,AST,[6],67.6 IU/L
same,BUN,[6],20 mg/dL
same,CRE,[6],0.5 mg/dL
same,DBIL,[6],0.002 mg/dL
same,GLC,[6],203.8 mg/dL
same,IP,[6],8.2 mg/dL
same,K,[6],5.1 meq/L
same,LDH,[6],77 IU/L
same,Na,[6],139.2 meq/L
same,PL,[6],144.2 mg/dL
same,RALB,[6],4 g/dL
same,TBIL,[6],0.3 mg/dL
same,TC,[6],74.6 mg/dL
same,TG,[6],83.6 mg/dL
same,TP,[6],6 g/dL
same,gamma-GTP,[6],1.8 IU/L
same,ALP,[7],862.6 IU/L
same,ALT,[7],32.8 IU/L
same,AST,[7],61.2 IU/L
same,BUN,[7],22.2 mg/dL
same,CRE,[7],0.5 mg/dL
same,DBIL,[7],0 mg/dL
same,GLC,[7],197.6 mg/dL
same,IP,[7],7.8 mg/dL
same,K,[7],4.8 meq/L
same,LDH,[7],85 IU/L
same,Na,[7],138.2 meq/L
same,PL,[7],151.6 mg/dL
same,RALB,[7],4.1 g/dL
same,TBIL,[7],0.3 mg/dL
same,TC,[7],72.6 mg/dL
same,TP,[7],6.1 g/dL
same,gamma-GTP,[7],0.8 IU/L
same,ALP,[8],701.4 IU/L
same,ALT,[8],36.6 IU/L
same,AST,[8],65.8 IU/L
same,BUN,[8],22.6 mg/dL
same,CRE,[8],0.5 mg/dL
same,DBIL,[8],0.02 mg/dL
same,GLC,[8],194 mg/dL
same,IP,[8],7.5 mg/dL
same,K,[8],4.9 meq/L
same,LDH,[8],116.8 IU/L
same,Na,[8],137.2 meq/L
same,PL,[8],148.4 mg/dL
same,RALB,[8],4.1 g/dL
same,TBIL,[8],0.3 mg/dL
same,TC,[8],72.8 mg/dL
same,TG,[8],114.6 mg/dL
same,TP,[8],6.2 g/dL
same,gamma-GTP,[8],0.8 IU/L
same,TERMINAL_BW,[9],239.8 g
same,APTT,[9],16.2 s
same,Bas,[9],0%
